Measurements as given in patent publication US9597347B2, “Compositions for treating obesity and insulin resistance disorders” (President and Fellows of Harvard College, priority 2003, dated 2017).

System: phosphorylation of ACC
Assay: Western blot of ACC phosphorylation in HEP3B human hepatoma cells
Type: cell-based
Conditions: resveratrol-treated cells with SIRT1 overexpressed or knocked down
Description: Similar results were also observed for HEP3B human hepatoma cells. In this case phosphorylation of ACC was measured in cells were SIRT1 was overexpressed (see FIG. 9, 4 right lanes) and in cells were SIRT1 was knocked down (FIG. 9, left lane). […] Tubulin served as a loading control.

## Oc1ccc(/C=C/c2cc(O)cc(O)c2)cc1 [resveratrol, 3,5,4′-Trihydroxy-trans-stilbene]
  phosphorylation of ACC: Phosphorylation of ACC was not affected
